Earlier results on two compounds are cited in paper PMC11046985 (Neuro-Oncology Advances, 2024).

Details of data set [1]: method as in earlier work. The conditions noted are these: erlotinib increased from 150 to 600 mg; cited from earlier work.
The conditions of data set [2]: daily administration, patients with brain tumors; cited from earlier work.

`C#Cc1cccc(Nc2ncnc3cc(OCCOC)c(OCCOC)cc23)c1` [erlotinib]: in data set [1], the “Increase of area under the curve estimation in the CSF” value is reported as 24% and the “Increase of area under the curve estimation in the plasma” value is 2%. Further, the “Therapeutic levels in cerebrospinal fluid (CSF)” value in data set [2] was “did not appear to reach therapeutic levels”.
As to `COc1cc2ncnc(Nc3ccc(F)c(Cl)c3)c2cc1OCCCN1CCOCC1` [gefitinib], the “Therapeutic levels in cerebrospinal fluid (CSF)” value in data set [2] is reported as “did not appear to reach therapeutic levels”.
